Experimental data reported in patent US6288103A, “Indole derivatives as MCP-1 receptor antagonists” (Zeneca Limited, priority 1997, dated 2001).

Target: T1, hMCP-1 receptor, MCP-1 receptor B (CCR2B) (Homo sapiens, UniProt P41597)
T1 construct: expressed in transfected cells; host or cells: CHO-K1 (clone 7, CHO-CCR2B), membrane fragments
T1 sequence (P41597 1-360 isoform P41597-2): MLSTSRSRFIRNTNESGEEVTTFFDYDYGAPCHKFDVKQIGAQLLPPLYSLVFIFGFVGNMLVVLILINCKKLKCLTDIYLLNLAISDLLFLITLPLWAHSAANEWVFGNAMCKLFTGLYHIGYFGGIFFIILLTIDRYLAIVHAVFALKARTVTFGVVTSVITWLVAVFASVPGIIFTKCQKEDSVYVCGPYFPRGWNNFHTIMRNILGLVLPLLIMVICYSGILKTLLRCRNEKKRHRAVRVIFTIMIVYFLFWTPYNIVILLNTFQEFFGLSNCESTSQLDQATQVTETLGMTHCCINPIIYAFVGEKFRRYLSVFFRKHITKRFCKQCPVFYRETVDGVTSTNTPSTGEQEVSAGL
Test: hMCP-1 receptor-binding assay
Settings: competition with 100 pM 125I-labelled MCP-1, CHO-CCR2B cell membranes, concentration range 0.1-200 μM
From the text: a) hMCP-1 Receptor-binding Assay
The MCP-1 receptor B (CCR2B) cDNA was cloned by PCR from THP-1 cell RNA using suitable oligonucleotide primers based on the published MCP-1 receptor sequences (Charo et al., 1994, Proc. Natl. Acad. Sci. USA, 91, 2752). The resulting PCR products were cloned into vector PCR-II™ (InVitrogen, San Diego, Calif.). Error free CCR2B cDNA was subcloned as a Hind III-Not I fragment into the eukaryotic expression vector pCDNA3 (In Vitrogen) to generate pCDNA3/CC-CKR2A and pCDNA3/CCR2B respectively.
Linearised pCDNA3/CCR2B DNA was transfected into CHO-K1 cells by calcium phosphate precipitation (Wigler et al., 1979, Cell, 16, 777). Transfected cells were selected by the addition of Geneticin Sulphate (G418, Gibco BRL) at 1 mg/ml, 24 hours after the cells had been transfected. Preparation of RNA and Northern blotting were carried out as described previously (Needham et al., 1995, Prot. Express. Purific., 6, 134). CHO-K1 clone 7 (CHO-CCR2B) was identified as the highest MCP-1 receptor B expressor.
CHO-CCR2B cells were grown in DMEM supplemented with 10% foetal calf serum, 2 mM glutamine, 1× Non-Essential Amino Acids, 1× Hypoxanthine and Thymidine Supplement and Penicillin-Streptomycin (at 50 μg streptomycin/mi, Gibco BRL). […]

An IC50 of 10 µM was found for `O=C(O)c1cc2ccccc2n1S(=O)(=O)c1ccc(Cl)c(Cl)c1` [Example 2.01, N-(3,4-Dichlorophenylsulphonyl)indole-2-carboxylic acid] in this work.
